Measured values taken from publication PMC5729930, “Bitopic fluorescent antagonists of the A2A adenosine receptor based on pyrazolo[4,3-e][1,2,4]triazolo[1,5-c]pyrimidin-5-amine functionalized congeners” (MedChemComm, 2017).

Key:
[1] = biological target: T1, mA3AR (Mus musculus, UniProt Q61618); assay: Competition radioligand binding, mA3AR; settings: for inhibition at 10 µM: mouse A3AR, percent inhibition at 10 μM, read-out: % inhib, A3 (m) (converted)
T1 construct: expressed in transfected cells; host or cells: HEK-293
T1 sequence (Q61618 1-319): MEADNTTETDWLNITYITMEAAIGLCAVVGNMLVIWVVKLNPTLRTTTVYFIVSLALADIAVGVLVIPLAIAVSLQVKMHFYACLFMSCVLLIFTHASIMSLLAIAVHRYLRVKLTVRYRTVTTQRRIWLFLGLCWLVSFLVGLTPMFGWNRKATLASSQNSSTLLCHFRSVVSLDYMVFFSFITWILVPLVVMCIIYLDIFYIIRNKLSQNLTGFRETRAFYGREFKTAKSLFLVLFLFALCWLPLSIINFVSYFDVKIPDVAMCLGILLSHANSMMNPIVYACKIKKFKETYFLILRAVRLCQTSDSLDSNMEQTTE
Experimental: (§1) The affinity of the amine congeners and other antagonists was measured using standard radioligand binding assays for hA1, A2A and A3ARs (Table 1).[1],[13],[14],[22] Membranes of human embryonic kidney (HEK)293 cells expressing the AR of interest were used in the assay. Primary amine congeners 6a–6d containing spacers of 2–5 methylenes were similar in terms of hA2AAR affinity (Ki 6–9 nM), with the butylamino congener 6c displaying the highest A2AAR selectivity in the series. The affinity of this compound for the hA3AR was determined to be 6.0 μM, with only slightly higher hA1AR affinity. Homologation to 6 methylenes in compound 6e lowered A2AAR affinity. […] No dependence of the affinity on the chain length was evident when comparing AlexaFluor647 conjugates 9 and 10. […]
(§2) Radioligand binding assays: Cell membranes were prepared as reported.1
(§3) Binding assays were carried out using standard radioligands and membrane preparations from HEK-293 cells stably expressing the human (h) A1, A2A or A3ARs or mouse (m) A1, A2A or A3ARs. The radioligands used were: A1AR, [3H]8-cyclopentyl-1,3-dipropylxanthine 14; A2AAR, [3H]2; A3AR, [125I]N6-(4-amino-3-iodobenzyl)adenosine-5′-N-methyluronamide 16. The radioligand for archival A2AAR affinity data presented in Table 1 was [3H]2-[p-(2-carboxyethyl)phenyl-ethylamino]-5′-N-ethylcarboxamidoadenosine 15. Nonspecific binding was determined using 10 µM 8-[4-[[[[(2-aminoethyl)amino]carbonyl]methyl]oxy]phenyl]-1,3-dipropylxanthine 17 (A1AR and A2AAR) or 10 µM adenosine-5′-N-ethyluronamide 18 (A3AR). HEK-293 cells expressing recombinant mA1, A2A, or A3AR […]
(§4) Protein was determined as reported.2 In all the binding experiments, IC50 values and Ki values were calculated using GraphPad Prism software (San Diego, CA). Values are expressed as mean±SEM. […]
(§5) Med. Chem. Comm., 2015, 6:555-563.
(§6) 2. Bradford, M. M. A rapid and sensitive method for the quantitation of microgram quantities of protein utilizing the principle of protein -dye binding. Anal. Biochem. 1976, 72, 248-254.

[2] = biological target: T2, A3AR (Homo sapiens, UniProt P0DMS8); assay: Competition radioligand binding, hA3AR ([125I]I-AB-MECA); settings: [125I]I-AB-MECA 0.2 nM; for inhibition at 10 µM: percent inhibition at 10 μM, read-out: % inhib, A3
T2 construct: expressed in transfected cells
T2 sequence (P0DMS8 1-318): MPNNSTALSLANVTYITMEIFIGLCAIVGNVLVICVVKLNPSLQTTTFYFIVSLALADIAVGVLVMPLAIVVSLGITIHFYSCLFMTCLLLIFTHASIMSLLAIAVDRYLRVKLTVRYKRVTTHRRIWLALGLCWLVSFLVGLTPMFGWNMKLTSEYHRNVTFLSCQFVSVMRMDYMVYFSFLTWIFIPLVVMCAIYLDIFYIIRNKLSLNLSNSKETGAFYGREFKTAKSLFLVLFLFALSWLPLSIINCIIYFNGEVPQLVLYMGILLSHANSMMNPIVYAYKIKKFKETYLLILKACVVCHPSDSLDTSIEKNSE
Experimental: as §1, §2, §3, §4, §5, §6

[3] = biological target: T3, A1AR (Homo sapiens, UniProt P30542); assay: Competition radioligand binding, hA1AR ([3H]DPCPX); settings: [3H]DPCPX 0.5 nM; for Ki: HEK-293 membranes, 1 h 25 °C, mean ± SEM, read-out: Affinity, Ki, A1
T3 construct: expressed in transfected cells
T3 sequence (P30542 1-326): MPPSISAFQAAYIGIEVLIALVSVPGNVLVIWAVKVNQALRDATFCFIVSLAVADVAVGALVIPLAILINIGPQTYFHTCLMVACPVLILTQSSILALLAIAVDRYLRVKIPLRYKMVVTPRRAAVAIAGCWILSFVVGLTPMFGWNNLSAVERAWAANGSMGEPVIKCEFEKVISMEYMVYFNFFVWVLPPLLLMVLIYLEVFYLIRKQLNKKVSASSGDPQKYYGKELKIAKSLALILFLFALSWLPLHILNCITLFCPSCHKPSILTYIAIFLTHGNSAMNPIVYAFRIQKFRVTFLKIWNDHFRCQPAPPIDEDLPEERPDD
Experimental: as §1, §2, §3, §4, §5, §6

[4] = biological target: T4, mA1AR (Mus musculus, UniProt Q60612); assay: Competition radioligand binding, mA1AR; settings: for inhibition at 10 µM: mouse A1AR, percent inhibition at 10 μM
T4 construct: expressed in transfected cells; host or cells: HEK-293
T4 sequence (Q60612 1-326): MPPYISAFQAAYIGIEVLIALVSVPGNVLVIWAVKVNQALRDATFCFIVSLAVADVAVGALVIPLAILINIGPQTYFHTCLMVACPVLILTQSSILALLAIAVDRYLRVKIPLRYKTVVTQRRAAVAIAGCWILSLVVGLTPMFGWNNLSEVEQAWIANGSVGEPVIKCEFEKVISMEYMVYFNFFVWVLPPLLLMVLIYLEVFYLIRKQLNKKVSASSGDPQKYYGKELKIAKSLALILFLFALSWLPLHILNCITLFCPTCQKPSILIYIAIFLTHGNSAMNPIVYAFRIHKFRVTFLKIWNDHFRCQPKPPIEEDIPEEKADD
Experimental: as §1, §2, §3, §4, §5, §6

Row | Compound | inhibition at 10 µM [1] | binding to the mA3AR ([1]; result in words) | Ki ([2]; HEK-293 membranes, 1 h 25 °C, mean ± SEM, read-out: Affinity, Ki, A3) | Ki [3] | inhibition at 10 µM [4] | binding to the mA1AR ([4]; result in words) | inhibition at 10 µM [2] | inhibition at 10 µM ([3]; percent inhibition at 10 μM)
1 | N.Nc1nc2c(cnn2CCCc2ccc(OCc3ccc(S(=O)(=O)O)cc3)cc2)c2nc(-c3ccco3)nn12 [compound 13] | 4% | insignificant | 2660 ± 1250 nM | 4190 ± 750 nM | 21% | insignificant |  | 
2 | Nc1nc2c(cnn2CCCc2ccc(OCC(=O)NCCCCNC(=O)CCCCCNC(=O)COc3ccc(/C=C/C4=[N+]5C(=Cc6ccc(-c7cccs7)n6[B-]5(F)F)C=C4)cc3)cc2)c2nc(-c3ccco3)nn12 [compound 11] | 2% |  |  |  | 0% |  | 33% | 40%
3 | CCN(CC)CC.CCN(CC)CC.N=c1ccc2c(-c3ccc(C(=O)NCCCCNC(=O)COc4ccc(CCCn5ncc6c5nc(N)n5nc(-c7ccco7)nc65)cc4)cc3C(=O)O)c3ccc(N)c(S(=O)(=O)O)c3oc-2c1S(=O)(=O)O [compound 12] | 5% |  |  | 1680 ± 470 nM | 0% |  | 32% | 
